Measurements: patent publication US10238758B2, “Radiolabeled alpha-melanocyte stimulating hormone hybrid peptide for melanoma targeting” (STC.UNM, priority 2011, dated 2019)
“Also recorded” adds a separate entry of the source. Positions of bridges follow the written chain, without caps; N, C: chain ends. Non-standard residues stand in square brackets, D forms with d. Residues, ends and D or L forms follow the SMILES beside them.

Key:
[1] = target: T1, MC1 receptor (Homo sapiens, UniProt Q01726); conditions: M21 melanoma cells, cited from earlier work
T1 construct: Both MC1 and αvβ3 integrin receptors are over-expressed in M21 melanoma cells [23]; endogenous in cells; host or cells: M21 human melanoma cells

[2] = target: T2, αvβ3 integrin receptor (Homo sapiens, UniProt P05106+P06756); conditions: M21 melanoma cells, vs RGD-Lys-(Arg11)CCMSH; cited from earlier work
T2 construct: Both MC1 and αvβ3 integrin receptors are over-expressed in M21 melanoma cells [23]; endogenous in cells; host or cells: M21 human melanoma cells

[3] = target: T3, MC1 receptor (Mus musculus, UniProt Q01727); test: MC1 receptor competitive binding with 125I-(Tyr2)-NDP-MSH in B16/F1 melanoma cells; parameters: species or system murine
T3 construct: host or cells: B16/F1 murine melanoma cells
Text: Amino acid and resin were purchased from Advanced ChemTech Inc. (Louisville, Ky.) and Novabiochem (San Diego, Calif.). ^125I-Tyr^2-[Nle^4, DPhe^7]-α-MSH {^125I-(Tyr^2)-NDP-MSH} was obtained from PerkinElmer, Inc. (Shelton, Conn.) for MC1 receptor binding assay. ^99mTcO4^− was purchased from Cardinal Health (Albuquerque, N. Mex.) for peptide radiolabeling. All other chemicals used in this study were purchased from Thermo Fisher Scientific (Waltham, Mass.) and used without further purification. B16/F1 murine melanoma cells were obtained from American Type Culture Collection (Manassas, Va.).
The RAD-Lys-(Arg^11)CCMSH was synthesized according to our published procedure, purified by reverse phase-high performance liquid chromatography (RP-HPLC) and characterized by LC-mass spectroscopy. The IC50 value of RAD-Lys-(Arg^11)CCMSH for the MC1 receptor was determined in B16/F1 melanoma cells. Briefly, the B16/F1 cells were harvested and seeded into a 24-well cell culture plate (0.2×10^6 cells/well) and incubated at 37° C. overnight. […] The radioactivities associated with cells were measured in a Wallac 1480 automated gamma counter (PerkinElmer, NJ). The IC50 value of RAD-Lys-(Arg^11)CCMSH was calculated using the Prism software (GraphPad Software, La Jolla, Calif.).

[4] = system: B16/F1 melanoma cells; test: Cellular internalization and efflux in B16/F1 melanoma cells; format: cell-based, murine; conditions: for activity internalized: 25° C.
Procedure: RAD-Lys-(Arg^11)CCMSH was radiolabeled with ^99mTc using the method described previously. The radiolabeled peptide was purified to single species by Waters RP-HPLC (Milford, Mass.) on a Grace Vydac C-18 reverse phase analytic column (Deerfield, Ill.) using a 20 min gradient of 16-26% acetonitrile in 20 mM HCl aqueous solution at a flow rate of 1 mL/min. Cellular internalization and efflux of ^99mTc-RAD-Lys-(Arg^11)CCMSH were evaluated in B16/F1 melanoma cells. Briefly, the B16/F1 cells in 24-well cell culture plates were incubated at 25° C. for 20, 40, 60, 90 and 120 min (n=4) in the presence of approximately 200,000 cpm of HPLC purified ^99mTc-RAD-Lys-(Arg^11)CCMSH. After incubation, the reaction medium was aspirated and the cells were rinsed twice with 0.5 mL of ice-cold pH 7.4, 0.2% BSA/0.01 M PBS. Cellular internalization of ^99mTc-RAD-Lys-(Arg^11) CCMSH was assessed by washing the cells with acidic buffer [40 mM sodium acetate (pH 4.5) containing 0.9% NaCl and 0.2% BSA] to remove the membrane-bound radioactivity. The remaining internalized radioactivity was obtained by lysing the cells with 0.5 mL of 1 N NaOH for 5 min. Membrane-bound and internalized ^99mTc activities were counted in a gamma counter. Cellular efflux of ^99mTc-RAD-Lys-(Arg^11)CCMSH was determined by incubating the B16/F1 cells with ^99mTc-RAD-Lys-(Arg^11)CCMSH for 2 h at 25° C., removing non-specific-bound radioactivity with 2×0.5 mL of ice-cold pH 7.4, 0.2% BSA/0.01 M PBS rinse, and monitoring radioactivity released into cell culture medium. At time points of 20, 40, 60, 90 and 120 min, the radioactivities in medium, on cell surface and in cells were separately collected and counted in a gamma counter.

[5] = system: B16/F1 melanoma-bearing C57 mice; test: Biodistribution in B16/F1 melanoma-bearing C57 mice; format: in vivo
Procedure: All the animal studies were conducted in compliance with Institutional Animal Care and Use Committee approval. The biodistribution of ^99mTc-RAD-Lys-(Arg^11)CCMSH was determined in B16/F1 melanoma-bearing C57 mice (Harlan, Indianapolis, Ind.). C57 mice were subcutaneously inoculated on the right flank with 1×10^6 B16/F1 cells. Tumor weights reached approximately 0.2 g at 10 days post cell inoculation. Each melanoma-bearing mouse was injected with 0.037 MBq of ^99mTc-RAD-Lys-(Arg^11)CCMSH via the tail vein. Groups of 5 mice were sacrificed at 0.5, 2, 4 and 24 h post-injection, and tumors and organs of interest were harvested, weighed and counted. Blood values were taken as 6.5% of the whole-body weight.
The specificity of tumor uptake was determined at 2 h post-injection by co-injecting ^99mTc-RAD-Lys-(Arg^11)CCMSH with 10 μg (6.1 nmol) of unlabeled NDP-MSH. L-lysine co-injection is effective in decreasing the renal uptake of radiolabeled α-MSH peptides. To determine the effect of L-lysine co-injection on the renal uptake of ^99mTc-RAD-Lys-(Arg^11)CCMSH, a group of 5 mice were injected with a mixture of 0.037 MBq of ^99mTc-RAD-Lys-(Arg^11)CCMSH and 12 mg of L-lysine. The mice were sacrificed at 2 h post-injection, and tumors and organs of interest were harvested, weighed and counted in a gamma counter.
Statistical analysis was performed using the Student's t-test for unpaired data to determine the significance of differences in tumor and kidney uptake between the groups in the biodistribution studies with/without peptide blockade or with/without L-lysine co-injection. Differences at the 95% confidence level (p<0.05) were considered significant.

[6] = system: B16/F1 melanoma-bearing C57 mouse; test: SPECT/CT melanoma imaging in a B16/F1 melanoma-bearing C57 mouse; format: in vivo; conditions: 2 h post-injection
Procedure: (§1) Approximately 6.7 MBq of ^99mTc-RAD-Lys-(Arg^11)CCMSH was injected in a B16/F1 melanoma-bearing C57 mouse for imaging and urine analysis. The mouse was euthanized at 2 h post-injection for small animal SPECT/CT (Nano-SPECT/CT®, Bioscan) imaging, as well as to collect urine for analyzing the metabolites. The 9-min CT imaging was immediately followed by the whole-body SPECT scan. The SPECT scans of 24 projections were acquired. Reconstructed SPECT and CT data were visualized and co-registered using InVivoScope (Bioscan, Washington D.C.). The collected urine sample was centrifuged at 16,000 g for 5 min before the HPLC analysis. Thereafter, aliquots of the urine were injected into the HPLC. A 20-minute gradient of 16-26% acetonitrile/20 mM HCl with a flow rate of 1 mL/min was used for urine analysis.

[7] = Urinary metabolites by HPLC in a B16/F1 melanoma-bearing C57 mouse; format: in vivo; conditions: 2 h post-injection
Procedure: as §1

T1 sequence (Q01726 whole entry): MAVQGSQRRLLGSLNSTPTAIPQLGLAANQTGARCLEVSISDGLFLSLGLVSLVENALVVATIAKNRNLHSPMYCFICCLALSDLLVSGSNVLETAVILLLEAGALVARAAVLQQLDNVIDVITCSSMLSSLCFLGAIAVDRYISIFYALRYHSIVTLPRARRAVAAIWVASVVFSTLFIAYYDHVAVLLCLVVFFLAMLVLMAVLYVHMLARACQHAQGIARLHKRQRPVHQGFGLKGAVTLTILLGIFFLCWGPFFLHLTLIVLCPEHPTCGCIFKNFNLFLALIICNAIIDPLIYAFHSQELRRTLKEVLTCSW
T3 sequence (Q01727 whole entry): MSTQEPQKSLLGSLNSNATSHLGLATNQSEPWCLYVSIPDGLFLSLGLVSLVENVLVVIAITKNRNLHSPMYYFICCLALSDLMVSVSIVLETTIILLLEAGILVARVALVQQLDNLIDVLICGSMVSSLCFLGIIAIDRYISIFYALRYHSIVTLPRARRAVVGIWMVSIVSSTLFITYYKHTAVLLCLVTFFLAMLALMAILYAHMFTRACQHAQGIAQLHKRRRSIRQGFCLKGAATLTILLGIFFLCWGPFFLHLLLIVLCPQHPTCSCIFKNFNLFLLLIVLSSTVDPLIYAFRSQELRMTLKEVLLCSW
T2 sequence (P06756 31-889 limits assumed): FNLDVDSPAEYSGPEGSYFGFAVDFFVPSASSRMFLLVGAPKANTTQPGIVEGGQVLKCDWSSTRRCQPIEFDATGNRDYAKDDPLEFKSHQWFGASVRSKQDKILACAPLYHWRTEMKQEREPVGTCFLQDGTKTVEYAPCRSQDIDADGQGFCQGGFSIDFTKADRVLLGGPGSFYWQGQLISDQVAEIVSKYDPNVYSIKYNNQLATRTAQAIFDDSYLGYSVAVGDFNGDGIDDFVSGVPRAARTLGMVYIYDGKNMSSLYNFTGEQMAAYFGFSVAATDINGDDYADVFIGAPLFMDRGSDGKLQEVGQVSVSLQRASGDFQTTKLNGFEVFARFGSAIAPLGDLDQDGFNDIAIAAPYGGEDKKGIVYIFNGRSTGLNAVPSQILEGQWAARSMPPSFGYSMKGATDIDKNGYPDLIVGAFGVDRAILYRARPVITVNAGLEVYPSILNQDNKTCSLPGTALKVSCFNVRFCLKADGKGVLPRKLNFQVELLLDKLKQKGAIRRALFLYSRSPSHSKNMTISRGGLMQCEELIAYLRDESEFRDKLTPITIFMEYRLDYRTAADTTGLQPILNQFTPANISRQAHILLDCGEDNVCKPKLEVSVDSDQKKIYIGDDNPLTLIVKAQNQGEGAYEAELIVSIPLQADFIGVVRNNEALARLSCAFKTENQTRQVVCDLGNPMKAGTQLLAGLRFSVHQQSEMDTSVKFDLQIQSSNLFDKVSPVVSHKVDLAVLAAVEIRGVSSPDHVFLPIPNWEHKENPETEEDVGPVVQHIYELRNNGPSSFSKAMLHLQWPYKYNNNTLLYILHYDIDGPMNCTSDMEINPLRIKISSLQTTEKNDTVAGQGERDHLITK
T2 sequence (P06756 891-1048 limits assumed): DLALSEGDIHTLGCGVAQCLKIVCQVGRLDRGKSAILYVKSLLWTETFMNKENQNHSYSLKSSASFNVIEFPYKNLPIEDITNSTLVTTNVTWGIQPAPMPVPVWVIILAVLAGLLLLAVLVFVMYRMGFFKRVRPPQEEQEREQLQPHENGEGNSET
T2 sequence (P05106 27-788): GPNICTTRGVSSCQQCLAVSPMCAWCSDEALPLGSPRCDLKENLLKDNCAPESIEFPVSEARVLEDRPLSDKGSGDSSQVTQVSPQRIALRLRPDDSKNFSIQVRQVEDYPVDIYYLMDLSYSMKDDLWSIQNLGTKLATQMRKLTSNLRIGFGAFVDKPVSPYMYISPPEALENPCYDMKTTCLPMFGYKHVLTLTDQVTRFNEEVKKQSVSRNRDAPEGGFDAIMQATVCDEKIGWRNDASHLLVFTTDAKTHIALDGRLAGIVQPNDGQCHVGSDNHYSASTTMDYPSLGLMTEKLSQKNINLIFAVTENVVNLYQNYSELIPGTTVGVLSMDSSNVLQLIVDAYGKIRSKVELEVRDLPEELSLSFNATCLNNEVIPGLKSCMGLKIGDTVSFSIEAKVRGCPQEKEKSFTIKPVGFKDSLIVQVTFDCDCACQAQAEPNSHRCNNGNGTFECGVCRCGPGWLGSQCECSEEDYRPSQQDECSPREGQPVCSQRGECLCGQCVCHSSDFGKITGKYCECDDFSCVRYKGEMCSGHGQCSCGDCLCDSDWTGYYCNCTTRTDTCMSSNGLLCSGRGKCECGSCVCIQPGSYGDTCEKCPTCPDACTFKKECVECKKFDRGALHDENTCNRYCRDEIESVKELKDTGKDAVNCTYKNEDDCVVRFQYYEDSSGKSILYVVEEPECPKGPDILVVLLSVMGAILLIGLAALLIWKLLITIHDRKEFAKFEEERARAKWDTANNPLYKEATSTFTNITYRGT

In the case of `CC(C)[C@H](NC(=O)[C@@H]1CCCN1C(=O)[C@H](CCCNC(=N)N)NC(=O)[C@H](CS)NC(=O)[C@H](Cc1c[nH]c2ccccc12)NC(=O)[C@H](CCCNC(=N)N)NC(=O)[C@@H](Cc1ccccc1)NC(=O)[C@H](Cc1c[nH]cn1)NC(=O)[C@H](CCC(=O)O)NC(=O)[C@H](CS)NC(=O)[C@H](CS)NC(=O)[C@H](CCCCN)NC(=O)[C@@H]1CC(=O)N[C@@H](CCCNC(=N)N)C(=O)N[C@@H](C)C(=O)N[C@@H](CC(=O)O)C(=O)N[C@H](Cc2ccc(O)cc2)C(=O)N1)C(N)=O` [RAD-Lys-(Arg^11)CCMSH] (RAD[dY]DKCCEH[dF]RWCRPV-NH2; lactam N-5 (inferred)), the “increase of MC1 receptor binding affinity by switch from RGD to RAD” value ([1]; vs RGD-Lys-(Arg11)CCMSH) is listed as 6.7 fold and the “decrease of αvβ3 integrin receptor binding affinity by switch from RGD to RAD” value [2] is listed as 248 fold.

With `CC(C)[C@H](NC(=O)[C@@H]1CCCN1C(=O)[C@H](CCCNC(=N)N)NC(=O)[C@H](CS)NC(=O)[C@H](Cc1c[nH]c2ccccc12)NC(=O)[C@H](CCCNC(=N)N)NC(=O)[C@@H](Cc1ccccc1)NC(=O)[C@H](Cc1c[nH]cn1)NC(=O)[C@H](CCC(=O)O)NC(=O)[C@H](CS)NC(=O)[C@H](CS)NC(=O)[C@H](CCCCN)NC(=O)[C@@H]1CC(=O)N[C@@H](CCCNC(=N)N)C(=O)N[C@@H](C)C(=O)N[C@@H](CC(=O)O)C(=O)N[C@H](Cc2ccc(O)cc2)C(=O)N1)C(N)=O` [^99mTc-RAD-Lys-(Arg^11)CCMSH, metal not drawn] (RAD[dY]DKCCEH[dF]RWCRPV-NH2; lactam N-5) the IC50 [3] was 0.26 nM, the activity internalized ([4]; 20 min post incubation) was 59.20±5.10% and the “cellular internalization and retention, in words” value ([4]; B16/F1 melanoma cells) was “rapid cellular internalization and extended cellular retention”. The activity internalized ([4]; after 2 h incubation) was 78.24±1.13%, the “tumor uptake with NDP-MSH co-injection as % of tumor uptake without” value ([5]; 10 μg (6.1 nmol) non-radiolabeled NDP-MSH co-injection, 2 h post-injection, p<0.01) was 7.8% and the “liver uptake as % of liver uptake of 99mTc-RGD-Lys-(Arg11)CCMSH” value (“liver uptake as %” for short) ([5]; 0.5 h post-injection) was 66.2%. For the same compound, the “renal uptake relative to 99mTc-RGD-Lys-(Arg11)CCMSH” value ([5]; 0.5 h post-injection) was 1.84 times, the “tumor uptake relative to 99mTc-RGD-Lys-(Arg11)CCMSH” value ([5]; 0.5 h post-injection) was 1.51 times and the “effect of L-lysine co-injection on tumor uptake” value ([5]; 2 h post-injection) was “without affecting the tumor uptake”. The “liver uptake as %” value ([5]; 2 h post-injection) was 61.9%, the “renal uptake relative to 99mTc-RGD-Lys-(Arg11)CCMSH” value ([5]; 2 h post-injection) was 1.39 times and the “tumor uptake relative to 99mTc-RGD-Lys-(Arg11)CCMSH” value ([5]; 2 h post-injection) was 1.34 times. The “renal uptake relative to 99mTc-RGD-Lys-(Arg11)CCMSH” value ([5]; 4 h post-injection) was 1.42 times, the “tumor uptake relative to 99mTc-RGD-Lys-(Arg11)CCMSH” value ([5]; 4 h post-injection) was 1.43 times and the “liver uptake as %” value ([5]; 24 h post-injection) was 72.3%. The “decrease of renal uptake by L-lysine co-injection” value ([5]; L-lysine co-injection) was 46%, the “effect of peptide blockade co-injection on renal uptake” value ([5]; NDP-MSH co-injection) was “did not reduce the renal uptake” and the “visualization of melanoma lesions by SPECT/CT” value [6] was “visualized clearly; also recorded: clearly visualized”. The “remained intact in urine” value [7] was “Approximately 82%” and the “transformed to a more lipophilic metabolite” value ([7]; urine) was 18%.

For “RGD-Lys-(Arg^11)CCMSH [cyclic RGD {Arg-Gly-Asp-DTyr-Asp} motif conjugated to [Cys3,4,10, D-Phe7, Arg11]α-MSH3-13 peptide via a lysine linker, reference compound]”, the IC50 ([1]; from ref. 23, read-out: MC1 receptor binding affinity) is listed as 2 nM.
